Tests used:
Assay in all cases: KINOMEscan
Format in all cases: binding
Conditions in all cases: read-out: Remaining enzyme activity
DDR2 = target: T1, DDR2 (Homo sapiens, UniProt Q16832)
T1 construct: purchased Ambit (DiscoverX) KINOMEscan; Cerep
Outline: (§1)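 Three components per well: DNA-labelled kinase, bead-bound ligand, compound (SC81458, 10 μM final). Blocking buffer: SeaBlock, 1% BSA, 0.05% Tween 20, 1 mM DTT. Readout = qPCR of kinase in eluate.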

PLK3 = target: T2, PLK3 (Homo sapiens, UniProt Q9H4B4)
T2 construct: purchased Ambit (DiscoverX) KINOMEscan; Cerep
T2 sequence (Q9H4B4 whole entry): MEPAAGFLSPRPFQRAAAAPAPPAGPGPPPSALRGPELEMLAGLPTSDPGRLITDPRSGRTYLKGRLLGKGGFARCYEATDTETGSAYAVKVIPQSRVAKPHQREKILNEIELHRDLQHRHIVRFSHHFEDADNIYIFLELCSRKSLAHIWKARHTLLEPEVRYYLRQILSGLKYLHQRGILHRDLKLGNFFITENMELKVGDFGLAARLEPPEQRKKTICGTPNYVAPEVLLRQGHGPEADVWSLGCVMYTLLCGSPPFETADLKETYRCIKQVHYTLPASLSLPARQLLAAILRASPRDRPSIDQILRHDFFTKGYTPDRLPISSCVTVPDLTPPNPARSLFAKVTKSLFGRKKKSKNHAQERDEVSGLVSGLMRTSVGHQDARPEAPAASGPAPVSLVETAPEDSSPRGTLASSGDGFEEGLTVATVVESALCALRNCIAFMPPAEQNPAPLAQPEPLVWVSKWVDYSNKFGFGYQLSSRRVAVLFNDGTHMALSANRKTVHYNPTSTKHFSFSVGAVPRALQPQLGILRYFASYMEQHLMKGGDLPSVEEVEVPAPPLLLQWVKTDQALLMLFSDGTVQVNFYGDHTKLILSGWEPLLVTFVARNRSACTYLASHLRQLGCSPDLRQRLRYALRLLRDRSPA
Outline: as §1

CIT = target: T3, CIT (Homo sapiens, UniProt O14578)
T3 construct: purchased Ambit (DiscoverX) KINOMEscan; Cerep
Outline: as §1

PAK4 = target: T4, PAK4 (Homo sapiens, UniProt O96013)
T4 construct: purchased Ambit (DiscoverX) KINOMEscan; Cerep
Outline: as §1

CAMK2g = target: T5, CAMK2g (Homo sapiens, UniProt Q13555)
T5 construct: purchased Ambit (DiscoverX) KINOMEscan; Cerep
T5 sequence (Q13555 whole entry): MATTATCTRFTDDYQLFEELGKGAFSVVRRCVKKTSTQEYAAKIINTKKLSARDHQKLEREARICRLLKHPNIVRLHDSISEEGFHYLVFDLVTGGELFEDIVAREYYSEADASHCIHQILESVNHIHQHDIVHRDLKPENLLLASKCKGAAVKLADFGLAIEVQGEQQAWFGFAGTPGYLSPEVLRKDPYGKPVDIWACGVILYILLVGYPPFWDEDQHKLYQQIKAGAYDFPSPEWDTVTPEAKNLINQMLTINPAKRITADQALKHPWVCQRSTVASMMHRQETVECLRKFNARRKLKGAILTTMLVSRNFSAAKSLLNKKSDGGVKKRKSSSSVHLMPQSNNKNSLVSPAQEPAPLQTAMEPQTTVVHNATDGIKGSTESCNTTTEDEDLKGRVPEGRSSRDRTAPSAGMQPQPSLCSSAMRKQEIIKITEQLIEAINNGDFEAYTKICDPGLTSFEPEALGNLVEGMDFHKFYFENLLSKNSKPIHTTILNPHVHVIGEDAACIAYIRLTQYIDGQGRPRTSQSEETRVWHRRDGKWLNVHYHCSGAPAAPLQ
Outline: as §1

ANKK1 = target: T6, ANKK1 (Homo sapiens, UniProt Q8NFD2)
T6 construct: purchased Ambit (DiscoverX) KINOMEscan; Cerep
Outline: as §1

ABL1(M351T) = target: T7, ABL1(M351T) (Homo sapiens, UniProt P00519, M351T)
T7 construct: purchased Ambit (DiscoverX) KINOMEscan; Cerep
Outline: as §1

PIK3CA(E545K) = target: T8, PIK3CA(E545K) (Homo sapiens, UniProt P42336, E545K)
T8 construct: purchased Ambit (DiscoverX) KINOMEscan; Cerep
Outline: as §1

PIK3CA(H1047Y) = target: T9, PIK3CA(H1047Y) (Homo sapiens, UniProt P42336, H1047Y)
T9 construct: purchased Ambit (DiscoverX) KINOMEscan; Cerep
Outline: as §1

AKT1 = target: T10, AKT1 (Homo sapiens, UniProt P31749)
T10 construct: purchased Ambit (DiscoverX) KINOMEscan; Cerep
Outline: as §1

EGFR(L858R, T790M) = target: T11, EGFR(L858R, T790M) (Homo sapiens, UniProt P00533, L858R/T790M)
T11 construct: purchased Ambit (DiscoverX) KINOMEscan; Cerep
Outline: as §1

DMPK = target: T12, DMPK (Homo sapiens, UniProt Q09013)
T12 construct: purchased Ambit (DiscoverX) KINOMEscan; Cerep
T12 sequence (Q09013 whole entry): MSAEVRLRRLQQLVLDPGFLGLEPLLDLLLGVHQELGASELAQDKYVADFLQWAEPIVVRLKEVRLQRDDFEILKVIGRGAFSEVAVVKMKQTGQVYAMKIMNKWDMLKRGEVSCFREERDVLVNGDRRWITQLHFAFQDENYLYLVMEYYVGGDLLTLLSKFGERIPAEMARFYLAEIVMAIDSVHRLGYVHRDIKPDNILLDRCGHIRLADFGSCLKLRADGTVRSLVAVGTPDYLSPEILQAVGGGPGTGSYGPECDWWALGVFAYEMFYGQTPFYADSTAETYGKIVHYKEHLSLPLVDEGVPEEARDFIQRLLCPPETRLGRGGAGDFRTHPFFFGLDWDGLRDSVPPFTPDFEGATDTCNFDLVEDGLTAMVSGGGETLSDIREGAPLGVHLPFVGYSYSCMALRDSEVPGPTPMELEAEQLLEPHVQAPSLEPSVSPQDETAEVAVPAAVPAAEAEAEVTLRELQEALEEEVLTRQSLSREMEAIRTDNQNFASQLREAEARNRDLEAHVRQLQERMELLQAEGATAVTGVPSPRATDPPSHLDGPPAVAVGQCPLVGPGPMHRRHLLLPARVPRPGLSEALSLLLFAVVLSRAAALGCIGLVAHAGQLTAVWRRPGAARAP
Outline: as §1

CDC2L1 = target: T13, CDC2L1 (Homo sapiens, UniProt P21127)
T13 construct: purchased Ambit (DiscoverX) KINOMEscan; Cerep
T13 sequence (P21127 whole entry): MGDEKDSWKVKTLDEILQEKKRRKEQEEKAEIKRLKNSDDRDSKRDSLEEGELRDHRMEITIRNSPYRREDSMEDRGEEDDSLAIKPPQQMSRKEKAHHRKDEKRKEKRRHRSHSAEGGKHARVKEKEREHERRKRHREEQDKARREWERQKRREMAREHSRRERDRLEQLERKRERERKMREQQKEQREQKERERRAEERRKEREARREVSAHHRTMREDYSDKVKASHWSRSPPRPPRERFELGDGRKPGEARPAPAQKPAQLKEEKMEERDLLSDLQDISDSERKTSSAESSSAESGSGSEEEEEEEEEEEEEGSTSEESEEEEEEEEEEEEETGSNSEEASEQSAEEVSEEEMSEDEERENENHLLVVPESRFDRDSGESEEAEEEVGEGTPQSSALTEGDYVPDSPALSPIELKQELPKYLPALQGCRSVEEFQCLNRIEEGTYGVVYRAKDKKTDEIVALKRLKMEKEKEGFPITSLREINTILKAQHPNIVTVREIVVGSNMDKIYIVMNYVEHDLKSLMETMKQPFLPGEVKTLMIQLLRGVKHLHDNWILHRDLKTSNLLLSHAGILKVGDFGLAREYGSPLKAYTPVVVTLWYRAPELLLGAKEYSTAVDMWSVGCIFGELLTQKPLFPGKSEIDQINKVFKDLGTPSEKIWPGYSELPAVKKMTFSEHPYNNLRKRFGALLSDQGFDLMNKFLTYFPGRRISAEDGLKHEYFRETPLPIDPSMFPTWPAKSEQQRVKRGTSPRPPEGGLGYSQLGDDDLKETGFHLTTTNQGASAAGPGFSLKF
Outline: as §1

HIPK3 = target: T14, HIPK3 (Homo sapiens, UniProt Q9H422)
T14 construct: purchased Ambit (DiscoverX) KINOMEscan; Cerep
Outline: as §1

ABL1(F317L) = target: T15, ABL1(F317L) (Homo sapiens, UniProt P00519, F317L)
T15 construct: purchased Ambit (DiscoverX) KINOMEscan; Cerep
Outline: as §1

KIT(V559D, V654A) = target: T16, KIT(V559D, V654A) (Homo sapiens, UniProt P10721, V559D/V654A)
T16 construct: purchased Ambit (DiscoverX) KINOMEscan; Cerep
T16 sequence (P10721 26-976 V559D/V654A): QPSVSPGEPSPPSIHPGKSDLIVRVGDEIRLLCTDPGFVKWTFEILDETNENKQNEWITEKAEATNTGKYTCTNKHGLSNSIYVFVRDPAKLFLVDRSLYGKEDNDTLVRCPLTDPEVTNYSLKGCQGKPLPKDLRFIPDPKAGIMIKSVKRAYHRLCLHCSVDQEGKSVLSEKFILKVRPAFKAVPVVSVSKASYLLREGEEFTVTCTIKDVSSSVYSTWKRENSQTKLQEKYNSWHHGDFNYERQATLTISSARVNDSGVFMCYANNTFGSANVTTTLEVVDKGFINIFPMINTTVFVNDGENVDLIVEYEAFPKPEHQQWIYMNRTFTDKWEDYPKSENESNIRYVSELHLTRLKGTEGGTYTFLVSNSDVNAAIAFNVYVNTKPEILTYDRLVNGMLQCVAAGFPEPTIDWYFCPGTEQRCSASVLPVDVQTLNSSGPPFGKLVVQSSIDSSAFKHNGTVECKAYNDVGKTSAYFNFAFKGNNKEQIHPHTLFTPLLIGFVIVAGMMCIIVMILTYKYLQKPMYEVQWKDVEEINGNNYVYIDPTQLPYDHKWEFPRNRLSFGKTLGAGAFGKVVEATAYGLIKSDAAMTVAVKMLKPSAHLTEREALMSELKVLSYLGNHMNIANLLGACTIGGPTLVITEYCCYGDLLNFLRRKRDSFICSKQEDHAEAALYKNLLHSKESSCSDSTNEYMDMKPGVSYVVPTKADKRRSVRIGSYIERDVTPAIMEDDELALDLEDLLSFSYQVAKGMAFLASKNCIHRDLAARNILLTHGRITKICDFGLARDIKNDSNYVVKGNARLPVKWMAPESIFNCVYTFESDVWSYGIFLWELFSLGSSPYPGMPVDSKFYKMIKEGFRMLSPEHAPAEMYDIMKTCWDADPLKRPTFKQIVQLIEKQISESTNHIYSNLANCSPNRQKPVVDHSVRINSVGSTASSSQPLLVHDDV
Outline: as §1

HCK = target: T17, HCK (Homo sapiens, UniProt P08631)
T17 construct: purchased Ambit (DiscoverX) KINOMEscan; Cerep
Outline: as §1

[1] = target: T18, EGFR(L747-E749del, A750P) (Homo sapiens, UniProt P00533, A750P/DEL747-749)
T18 construct: purchased Ambit (DiscoverX) KINOMEscan; Cerep
Outline: as §1

PAK2 = target: T19, PAK2 (Homo sapiens, UniProt Q13177)
T19 construct: purchased Ambit (DiscoverX) KINOMEscan; Cerep
Outline: as §1

PIM1 = target: T20, PIM1 (Homo sapiens, UniProt P11309)
T20 construct: purchased Ambit (DiscoverX) KINOMEscan; Cerep
Outline: as §1

IKK-alpha = target: T21, IKK-alpha (Homo sapiens, UniProt O15111)
T21 construct: purchased Ambit (DiscoverX) KINOMEscan; Cerep
Outline: as §1

[2] = target: T22, RPS6KA1(Kin.Dom.2-C-term) (Homo sapiens, UniProt Q15418)
T22 construct: RPS6KA1(Kin.Dom.2-C-term); purchased Ambit (DiscoverX) KINOMEscan; Cerep
Outline: as §1

EGFR(E46-A750del) = target: T23, EGFR(E46-A750del) (Homo sapiens, UniProt P00533, DEL746-750)
T23 construct: purchased Ambit (DiscoverX) KINOMEscan; Cerep
Outline: as §1

AURKB = target: T24, AURKB (Homo sapiens, UniProt Q96GD4)
T24 construct: purchased Ambit (DiscoverX) KINOMEscan; Cerep
T24 sequence (Q96GD4 whole entry): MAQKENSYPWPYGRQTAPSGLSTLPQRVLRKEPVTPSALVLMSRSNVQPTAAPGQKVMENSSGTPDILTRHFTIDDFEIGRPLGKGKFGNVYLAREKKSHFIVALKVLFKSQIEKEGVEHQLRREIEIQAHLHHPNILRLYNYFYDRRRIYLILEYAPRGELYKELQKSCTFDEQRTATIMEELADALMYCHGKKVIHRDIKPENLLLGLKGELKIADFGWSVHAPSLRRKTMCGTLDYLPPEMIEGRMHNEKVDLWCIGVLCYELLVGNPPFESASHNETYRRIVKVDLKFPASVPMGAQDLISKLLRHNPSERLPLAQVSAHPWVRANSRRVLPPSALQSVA
Outline: as §1

RIOK2 = target: T25, RIOK2 (Homo sapiens, UniProt Q9BVS4)
T25 construct: purchased Ambit (DiscoverX) KINOMEscan; Cerep
Outline: as §1

KIT(V559D, T670I) = target: T26, KIT(V559D, T670I) (Homo sapiens, UniProt P10721, T670I/V559D)
T26 construct: purchased Ambit (DiscoverX) KINOMEscan; Cerep
T26 sequence (P10721 26-976 V559D/T670I): as the sequence (P10721 26-976 V559D/V654A) above, with A629V, T645I counted along it
Outline: as §1

MYLK2 = target: T27, MYLK2 (Homo sapiens, UniProt Q9H1R3)
T27 construct: purchased Ambit (DiscoverX) KINOMEscan; Cerep
Outline: as §1

BTK = target: T28, BTK (Homo sapiens, UniProt Q06187)
T28 construct: purchased Ambit (DiscoverX) KINOMEscan; Cerep
Outline: as §1

ABL1(H396P) = target: T29, ABL1(H396P) (Homo sapiens, UniProt P00519, H396P)
T29 construct: purchased Ambit (DiscoverX) KINOMEscan; Cerep
Outline: as §1

MELK = target: T30, MELK (Homo sapiens, UniProt Q14680)
T30 construct: purchased Ambit (DiscoverX) KINOMEscan; Cerep
T30 sequence (Q14680 whole entry): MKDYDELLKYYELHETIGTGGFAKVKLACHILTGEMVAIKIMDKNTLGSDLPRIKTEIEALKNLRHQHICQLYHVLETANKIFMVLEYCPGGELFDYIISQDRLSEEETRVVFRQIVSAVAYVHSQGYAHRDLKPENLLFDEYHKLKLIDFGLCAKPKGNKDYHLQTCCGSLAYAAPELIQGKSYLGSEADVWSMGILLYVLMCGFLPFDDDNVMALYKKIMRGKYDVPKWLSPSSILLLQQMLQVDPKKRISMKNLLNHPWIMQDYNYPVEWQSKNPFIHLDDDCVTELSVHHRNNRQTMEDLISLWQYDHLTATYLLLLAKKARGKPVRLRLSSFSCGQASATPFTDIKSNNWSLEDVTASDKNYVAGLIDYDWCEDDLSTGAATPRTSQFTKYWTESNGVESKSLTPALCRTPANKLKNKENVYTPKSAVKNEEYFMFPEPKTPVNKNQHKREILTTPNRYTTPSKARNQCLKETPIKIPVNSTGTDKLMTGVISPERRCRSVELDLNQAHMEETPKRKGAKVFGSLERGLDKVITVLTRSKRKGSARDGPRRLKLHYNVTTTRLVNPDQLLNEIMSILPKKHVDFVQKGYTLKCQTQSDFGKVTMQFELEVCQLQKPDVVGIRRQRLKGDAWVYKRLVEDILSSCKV
Outline: as §1

[3] = target: T31, RPS6KA1(Kin.Dom.1-N-term) (Homo sapiens, UniProt Q15418)
T31 construct: RPS6KA1(Kin.Dom.1-N-term); purchased Ambit (DiscoverX) KINOMEscan; Cerep
T31 sequence (Q15418 62-321 limits assumed): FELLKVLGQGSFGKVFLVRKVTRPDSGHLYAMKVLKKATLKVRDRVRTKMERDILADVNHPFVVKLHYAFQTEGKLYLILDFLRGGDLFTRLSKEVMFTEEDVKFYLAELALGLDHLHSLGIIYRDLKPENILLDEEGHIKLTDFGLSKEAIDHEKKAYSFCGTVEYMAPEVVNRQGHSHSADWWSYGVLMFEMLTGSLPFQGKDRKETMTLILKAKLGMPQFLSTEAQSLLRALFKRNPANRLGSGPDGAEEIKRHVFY
Outline: as §1

Question: For `CCCCN1CCN(C(=N)c2cccc(NC(=O)Nc3ccc(S(=O)(=O)NCc4ccc(S(N)(=O)=O)cc4)cc3)c2)CC1` [SC81458, 4-(3-(3-((4-butylpiperazin-1-yl)(imino)methyl)phenyl)ureido)-N-(4-sulfamoylbenzyl) benzenesulfonamide], which remaining binding at 10 µM (DDR2) is on record?
Answer: 100%

Question: What about the remaining binding at 10 µM (PLK3) of the same compound?
Answer: 75%

Question: And the remaining binding at 10 µM (CIT)?
Answer: 94%

Question: And the remaining binding at 10 µM (PAK4)?
Answer: 100%

Question: What about the remaining binding at 10 µM (CAMK2g) of the same compound?
Answer: 100%

Question: And the remaining binding at 10 µM (ANKK1)?
Answer: 99%

Question: And the remaining binding at 10 µM (ABL1(M351T))?
Answer: 100%

Question: And the remaining binding at 10 µM (PIK3CA(E545K))?
Answer: 100%

Question: And the remaining binding at 10 µM (PIK3CA(H1047Y))?
Answer: 100%

Question: And the remaining binding at 10 µM (AKT1)?
Answer: 87%

Question: What about the remaining binding at 10 µM (EGFR(L858R, T790M)) of the same compound?
Answer: 100%

Question: What about the remaining binding at 10 µM (DMPK) of the same compound?
Answer: 76%

Question: What about the remaining binding at 10 µM (CDC2L1) of the same compound?
Answer: 100%

Question: What about the remaining binding at 10 µM (HIPK3) of the same compound?
Answer: 99%

Question: And the remaining binding at 10 µM (ABL1(F317L))?
Answer: 100%

Question: And the remaining binding at 10 µM (KIT(V559D, V654A))?
Answer: 100%

Question: And the remaining binding at 10 µM (HCK)?
Answer: 100%

Question: And the remaining binding at 10 µM [1]?
Answer: 86%

Question: What about the remaining binding at 10 µM (PAK2) of the same compound?
Answer: 100%

Question: What about the remaining binding at 10 µM (PIM1) of the same compound?
Answer: 100%

Question: And the remaining binding at 10 µM (IKK-alpha)?
Answer: 100%

Question: What about the remaining binding at 10 µM [2] of the same compound?
Answer: 100%

Question: And the remaining binding at 10 µM (EGFR(E46-A750del))?
Answer: 96%

Question: And the remaining binding at 10 µM (AURKB)?
Answer: 78%

Question: What about the remaining binding at 10 µM (RIOK2) of the same compound?
Answer: 98%

Question: What about the remaining binding at 10 µM (KIT(V559D, T670I)) of the same compound?
Answer: 85%

Question: And the remaining binding at 10 µM (MYLK2)?
Answer: 100%

Question: And the remaining binding at 10 µM (BTK)?
Answer: 100%

Question: And the remaining binding at 10 µM (ABL1(H396P))?
Answer: 100%

Question: What about the remaining binding at 10 µM (MELK) of the same compound?
Answer: 100%

Question: What about the remaining binding at 10 µM [3] of the same compound?
Answer: 100%
